Key:
CT26 cells = assay: Anti-tumor efficacy in CT26 mouse model unresponsive to anti-PD-L1 therapy; format: in vivo, Balb/c mice; settings: Compound No. 30 10 mg/kg p.o. once a day over 14 days coadministered with anti-PD-L1 antibody 10 mg/kg i.p. every 3 days
Method: The anti-tumor efficacy of Compound No. 30 was studied in a CT26 mouse model which is unresponsive to anti-PD-L1 therapy only. CT26 cells were implanted subcutaneously into Balb/c mice which were then randomized and treated either with an […], an anti-PD-L1 antibody, or Compound No. 30 of Table 2 in combination with the anti-PD-L1 antibody. Compound No. 30 was dosed 10 mg/kg, p.o. once a day over 14 days and the anti-PD-L1 antibody was dosed at 10 mg/kg i.p. every 3 days.

AhR = target: T1, AhR (Homo sapiens, UniProt P35869); assay: DRE-Luciferase reporter assay (HepG2-Luc); format: cell-based; settings: Human HepG2 liver carcinoma AhR-Lucia reporter cells; inhibition of luciferase activity induced by AhR activating ligand at its EC50
T1 construct: endogenous in cells; host or cells: Human HepG2 liver carcinoma AhR-Lucia reporter cells (DRE-luciferase reporter stably transfected)
T1 sequence (P35869 11-848): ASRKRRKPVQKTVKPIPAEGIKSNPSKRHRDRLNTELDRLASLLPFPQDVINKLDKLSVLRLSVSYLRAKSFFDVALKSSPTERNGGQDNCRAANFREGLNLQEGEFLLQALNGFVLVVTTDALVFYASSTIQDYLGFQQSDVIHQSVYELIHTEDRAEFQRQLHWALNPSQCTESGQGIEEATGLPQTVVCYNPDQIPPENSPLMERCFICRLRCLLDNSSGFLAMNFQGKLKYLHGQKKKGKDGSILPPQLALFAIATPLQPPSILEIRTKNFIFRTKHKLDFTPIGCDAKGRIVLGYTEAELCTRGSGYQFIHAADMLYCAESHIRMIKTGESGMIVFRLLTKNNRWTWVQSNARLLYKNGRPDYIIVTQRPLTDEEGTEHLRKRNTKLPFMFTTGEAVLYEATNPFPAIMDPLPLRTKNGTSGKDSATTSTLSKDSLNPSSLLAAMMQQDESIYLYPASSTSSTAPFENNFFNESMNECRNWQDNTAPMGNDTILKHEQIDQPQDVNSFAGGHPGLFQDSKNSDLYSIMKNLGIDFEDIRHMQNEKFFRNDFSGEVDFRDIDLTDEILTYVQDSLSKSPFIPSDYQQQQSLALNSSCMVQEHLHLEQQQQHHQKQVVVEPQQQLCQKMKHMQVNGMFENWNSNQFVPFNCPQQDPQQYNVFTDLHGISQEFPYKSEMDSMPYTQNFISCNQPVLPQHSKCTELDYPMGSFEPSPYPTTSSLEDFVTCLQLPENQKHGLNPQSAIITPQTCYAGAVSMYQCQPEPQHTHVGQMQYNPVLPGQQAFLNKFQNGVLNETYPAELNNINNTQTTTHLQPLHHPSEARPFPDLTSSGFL
Text: AhR binds to dioxin responsive elements (DRE) upstream of the genes that it activates. One measure of AhR activity is activation of a reporter gene, such as luciferase, downstream of one or multiple DRE elements. Luciferase activity reflects activation and inhibition of AhR in the cells expressing this reporter. 20000 Human HepG2 liver carcinoma—AhR-Lucia reporter cells or Human HT29 colon adenocarcinoma-AhR reporter cells or other cell lines with a DRE-luciferase reporter stably transfected were plated in Eagle's Minimal Essential Medium, 10% heat-inactivated FBS, 1× non-essential amino acids Pen-Strep (10,000 U/mL) and Normocin (100 ug/mL) in plates (96-well, 384-well or other plates) and incubated overnight at 37° C. in a CO2 incubator and treated with and without AhR antagonists at a log dilution starting at 100 μM. […]
Cells were incubated for 24 or 48 hours or another time point and the supernatant was analyzed for determination of luciferase activity as a read-out of the AhR activation or inhibition. Luciferase was measured with the commercial kit QUANTI-Luc™ assay solution kit from InvivoGen following the manufacturer's instructions.
The level of luciferase with only agonist ligand added was the maximum signal while the luciferase with […] was the minimum signal. IC50 values were determined as the concentration which inhibits half of the luciferase activity.

IC50 (AhR) [nM]	Structure (SMILES)	tumor volume (tumor growth curves) (CT26 cells; p=0.039, Mann-Whitney, FIG. 4A)	tumor weight (CT26 cells; p=0.067, Mann-Whitney, FIG. 4B)
	C[C@H](n1cnc2c(-c3cnn(C)c3)nc(-c3ccc(Cl)cc3)cc2c1=O)C(C)(C)O [Compound No. 30, (S)-6-(4-chlorophenyl)-3-(3-hydroxy-3-methylbutan-2-yl)-8-(1-methyl-1H-pyrazol-4-yl)pyrido[3,4-d]pyrimidin-4(3H)-one]	reduction in tumor volume	reduction in tumor weight
< 100	O=c1c2cc(-c3ccc(OC(F)(F)F)cc3)nc(-c3cccnc3)c2ncn1C[C@@H](O)C(F)(F)F [compound 123, (R)-8-(pyridin-3-yl)-3-(3,3,3-trifluoro-2-hydroxypropyl)-6-(4-(trifluoromethoxy)phenyl)pyrido[3,4-d]pyrimidin-4(3H)-one]		

Source: US20230381182A1, “Biomarkers Related to Immune Checkpoint Inhibitor Therapy and Methods of Using the Same” (Senda Biosciences, Inc., priority 2020, published 2023)
